In a melting point compilation (Tetko et al.; mined from patent text by program, amines drawn as free bases though some values may be those of a salt):

Compared with COc1ccnc(CCc2nc3cc(-c4ccc(S(=O)(=O)N5CCN(c6ccc(C)cc6C)CC5)cc4)cnc3[nH]2)c1, COc1ccc(S(=O)(=O)n2ccc3ccnc(-c4ccco4)c32)cc1 is lower in melting point: 208 to 209 °C for the first, 127 to 130 °C for the second.

First: COc1cccc(N(C)C)c1C(=O)NC(=O)Nc1cccc(C(F)(F)F)c1
Second: CC(=O)c1cc2c(cc1F)OC(C)(C)[C@@H](O)[C@@H]2NC(=O)c1ccc(F)cc1 (relative stereo)
The melting point of the first is lower: 180 °C for the first, 200 to 203 °C for the second.

Compared with O=C(NCCn1ccnc1)c1sc2ccccc2c1Cl, CN(CC(=O)OC(C)(C)C)c1cncc(-c2nc(=O)c3ccccc3s2)n1 is higher in melting point: 132 to 134 °C for the first, 189 to 190 °C for the second.

First: Cc1nc(-c2ccc(OC(C)C)c([N+](=O)[O-])c2)sc1C(=O)O
Second: CC(C)(C)OC(=O)Nc1cc(CO)c(C#Cc2ccc(F)cc2)cc1[N+](=O)[O-]
The melting point of the first is higher: 211 to 213 °C for the first, 198 °C for the second.

First: COC(=O)c1csc(NC(=O)C(CC2CCCC2)c2ccc(Cl)cc2)n1 (stereo unspecified)
Second: O=C1CCn2c1ccc2C(=O)c1ccc(Cl)cc1
The melting point of the first is lower: 156 to 157 °C for the first, 165 to 166 °C for the second.

First: CC(C)(C)c1cc(Nc2cccc(Cl)c2)cc(C(C)(C)C)c1O
Second: CC(C)(C)c1ccc(NC(=N)Nc2ccc(C(C)(C)C)cc2)cc1
The melting point of the first is lower: 110 to 111 °C for the first, 161 to 162 °C for the second.

First: CCC1c2nc[nH]c2CCN1C(=O)NC (stereo unspecified)
Second: CNC(=O)c1ccccc1Nc1nc(Nc2ccc3c(c2)CCN(CC(C)(C)F)CC3)ncc1Cl
The melting point of the first is higher: 240 °C for the first, 207 to 210 °C for the second.

First: CCOC(Oc1cc(Cl)cc(Cl)c1)C(=O)NC(C)(C)C (stereo unspecified)
Second: CCOC(=O)c1cc2c(OC)cccc2[nH]1
The melting point of the first is lower: 69 to 71 °C for the first, 168 to 170 °C for the second.

First: COCCCNS(=O)(=O)NC(=O)OCCCc1ccc(OCCOC)cc1Oc1ncc(Cl)cc1Cl
Second: CCCCOc1ccc2c(c1)C(NS(C)(=O)=O)CC(C)(C)O2 (stereo unspecified)
The melting point of the first is lower: 87.9 to 89 °C for the first, 123 to 127 °C for the second.

First: Cc1ccccc1-n1cc(C#N)c(=O)[nH]c1=O
Second: CC1NC(=NO)OC1c1ccccc1 (stereo unspecified)
The melting point of the first is higher: 252 °C for the first, 145 to 148 °C for the second.

First: O=C(c1ccco1)c1cnn2c(-c3cccc(N4CCCCC4=O)c3)ccnc12
Second: O=C(c1ccccc1)c1cc([N+](=O)[O-])ccc1NC1CCCC1
The melting point of the first is higher: 159 to 160 °C for the first, 95 °C for the second.

Compared with O=C(C=Cc1ccc(O)cc1)c1c(O)cccc1O, COc1cc(C=CC(=O)C=Cc2ccc(OC(C)=O)c(OC)c2)ccc1OC(C)=O is lower in melting point: 190 to 192 °C for the first, 150 °C for the second.

First: COc1ccc(-c2nc3n(c2-c2ccc(OC)cc2)Cc2ccccc2C3)cc1
Second: ON=C(c1ccc(F)cc1)c1cccc2nc(N[C@@H]3CCc4ccccc43)ccc12
The melting point of the first is lower: 170 to 172 °C for the first, 184 °C for the second.

Compared with Cc1ccc(C(=Cc2nnnn2C)c2ccc(C)cc2F)c(F)c1, CCCCCc1ccc(-c2ccc(-c3ccc(C)cc3)s2)cc1F is higher in melting point: 58 to 60 °C for the first, 115 °C for the second.

Compared with CC1CC(=O)N(CCO)N=C1c1ccc2c(c1)CCC(=O)N2C (stereo unspecified), O=C1CCC(N2C(=O)c3ccccc3C2=S)C(=O)N1 (stereo unspecified) is higher in melting point: 171 to 173 °C for the first, 255 °C for the second.

Compared with COc1cc(S(C)=O)ccc1-c1nc2ccc(C(C)(C)CNS(C)(=O)=O)cc2[nH]1 (stereo unspecified), COC(=O)[C@@H]1CCCN1S(=O)(=O)c1ccc(Cl)c(COc2cccc3ccc(C)nc23)c1Cl is higher in melting point: 126 to 128 °C for the first, 136 °C for the second.

Going from CC(C)(N)c1ccc(-c2nc(Nc3ccc(F)cc3F)ncc2C#N)cc1 to O=c1nc(-c2ccccn2)sc2cc(F)ccc12, the melting point rises from 203 °C to 250 °C.

First: CCOC(=O)c1cccc2nc(CNC)n(Cc3ccc(-c4ccccc4-c4nnn[nH]4)cc3)c12
Second: CCCCOc1c(CNC(=O)OCC2c3ccccc3-c3ccccc32)n(CC(C)C)c(=O)c2ccc(-c3nc(C)c(C(=O)OCC)s3)cc12
The melting point of the first is higher: 248 to 250 °C for the first, 203 to 204 °C for the second.

Compared with COC1CC2C3CCC4=CC(=O)CCC4(C)C3(F)CCC2(C)C1(OC(C)=O)C(=O)CCl (stereo unspecified), CNC(=O)c1ccc(Nc2nc(Nc3cc4c(cc3OC)CCN(CC(=O)N(C)C)CC4)ncc2Cl)c(OC)c1 is lower in melting point: 241 to 244 °C for the first, 138 to 147 °C for the second.

Compared with O=C1C2=C(SCCO2)C(=O)N1c1ccc(Cl)cn1, ClC1=Nc2cc(Cl)ccc2Sc2cscc21 is higher in melting point: 152 °C for the first, 234 to 235 °C for the second.

First: CCNc1ccc(Cl)nc1
Second: CCC(=O)Nc1ccccc1C(=O)O
The melting point of the first is lower: 65 to 66 °C for the first, 120 °C for the second.

Compared with CS(=O)(=O)c1ccc(Cn2c3c(c4cc(F)cc(F)c42)CCCC(CC(=O)O)C3)cc1 (stereo unspecified), O=C(O)c1c[nH]c(=S)n1C1CCc2cc(F)cc(F)c2C1 (stereo unspecified) is higher in melting point: 200 to 202 °C for the first, 207 to 208 °C for the second.

First: Cc1ccc(C)c(SCCCCCCCC(=O)O)c1
Second: CCCCCCCCCc1ccc(S(N)(=O)=O)cc1
The melting point of the first is lower: 60 to 63 °C for the first, 94.5 to 95.2 °C for the second.

Going from COCn1c(C(O)(c2ccc(Cl)cc2)c2ccc(Cl)cc2)nc(C)c1C to CCN(CC)C(=O)c1cc2ccccc2c(-c2ccc(Cl)cc2)n1, the melting point falls from 151 °C to 122 °C.

First: O=C(Nc1ccc(-n2nc(C(F)(F)F)cc2C(F)(F)F)cc1)C1CC1
Second: CCCCN(C(C)=O)C1NC(=O)N(c2cccc(C(F)(F)F)c2)C(=O)N1
The melting point of the first is higher: 204 to 205 °C for the first, 146 to 148 °C for the second.

Compared with CCCCCCCCCCCC(=O)OC1CC(c2ccccc2)N(O)C(c2ccccc2)C1C (stereo unspecified), N#CCC12CC(c3ccccc31)c1ccccc12 is higher in melting point: 84 to 91 °C for the first, 130 to 131 °C for the second.

First: CCOC(=O)C1=C(C)N=C(N)C(C)(C(=O)OCC)C1c1ccccc1 (stereo unspecified)
Second: COCCc1nc2c(N)nc3ccccc3c2n1CCC(=O)N1CCOCC1
The melting point of the first is higher: 139 °C for the first, 125 to 126 °C for the second.

Going from CC(C)c1ccc(N(Cc2cnn(C(C)C)c2)C(=O)C2CCCc3c(O)cccc32)cc1 (stereo unspecified) to CC(C)c1ccc(C(=O)NC(C)c2cccs2)cc1 (stereo unspecified), the melting point falls from 185 °C to 100 °C.

First: COc1ccc2[nH]c(=O)cc(C)c2c1
Second: COc1ccc(-c2cc(NC(=O)CCCCBr)n[nH]2)cc1
The melting point of the first is higher: 270 to 273 °C for the first, 150 to 152 °C for the second.

Compared with NC1CCN(c2c(F)cc3c(=O)c(C(=O)O)cn(C4CC4)c3c2Cl)C1 (stereo unspecified), O=C(O)c1cn(C2CC2)c2c(F)c(N3CCNC(CF)C3)c(F)c(F)c2c1=O (stereo unspecified) is lower in melting point: 241 to 242 °C for the first, 219 to 220 °C for the second.

First: CS(=O)(=O)OCCCCC1C(=O)Nc2ccccc21 (stereo unspecified)
Second: CCN(C=O)C1CCC(CNc2nc3c(s2)CCOc2ccccc2-3)CC1 (stereo unspecified)
The melting point of the first is lower: 84 to 85 °C for the first, 210 to 213 °C for the second.

First: Oc1ncn(-c2cccc(F)n2)n1
Second: N#Cc1cnccc1O
The melting point of the first is higher: 290 °C for the first, 234 to 236 °C for the second.

First: CS(=O)(=O)n1c(C#N)nc2cc3c(cc21)OC(F)(F)C(F)(F)O3
Second: CC(Cn1nccn1)n1nnc2cc3c(=O)n(C(C)Cn4ncnn4)nnc3cc2c1=O (stereo unspecified)
The melting point of the first is higher: 180 to 183 °C for the first, 139 to 140 °C for the second.

First: CN(C(=S)c1ccc([N+](=O)[O-])cc1)C1CCN(C2CCCCC2)C1 (stereo unspecified)
Second: COc1cc(C2(C=O)C=CC=CC2)ccc1OCCCBr (stereo unspecified)
The melting point of the first is higher: 108 to 110 °C for the first, 88 to 89 °C for the second.

First: NC(Cc1c[nH]c2ccccc12)C(=O)Nc1c(F)cc(F)cc1F (stereo unspecified)
Second: O=C(Nc1ccccc1)Nc1cnc(-c2ccccc2)nc1-c1ccccc1Cl
The melting point of the first is lower: 45 to 55 °C for the first, 195 to 198 °C for the second.

With CCN(CC)C(C)CNc1ccc(NCC(C)N(CC)CC)c2c1C(=O)c1c(O)ccc(O)c1C2=O (stereo unspecified) the melting point was 126 to 128 °C.
